# How the values were obtained:
# ACE2 [1] = test: Externalization of ACE2 on cell surface, anti-human ACE2 antibody / horseradish peroxidase staining (FIG. 2); type: cell-based; details: human brain endothelial cells, 10 mM Diminazene for 3 hours, n=4
# Protocol: FIG. 2 is a graph of externalization of ACE2 on cell surface after treatment with diminazene. The inventors cultured human brain endothelial cells to confluency and exposed these cells to 10 mM Diminazene for 3 hours after which they were fixed in 3.7% phosphate buffered formaldehyde for 30 mins. Cells were then incubated in 1:250 rabbit antibhuman ACE2 (overnite) followed by washes and then goat anti rabbit horseradish peroxidase (1 h).
# [2] = in vivo; cited from earlier work
# [3] = tested on: viral infection of ACE2 expressing cell monolayers (WT spike); test: Infectivity of ACE2 expressing cell monolayers by virus (WT spike) (FIGS. 3-6); type: cell-based; details: for infectivity of cells: concentrations between 1 mM and 0.01 mM
# Protocol: This is equivalent to a high dose of 515 mg/kg (1 mM) to the lowest dose of 5.15 mg/kg (0.01 mM). Assuming 100% biological distribution in a 70 kg human, 10^-4M is a dose of 3.5 g and 10^-5M is 350 mg.
# This is equivalent to a high dose of 515 mg/kg (1 mM) to the lowest dose of 5.15 mg/kg.
# LD50 = type: in vivo; details: 70 kg human
# [4] = tested on: T. congolense-infected mice; details: cited from earlier work
# ACE2 [5] = type: cell-based
SMILES,average ACE2 signal on cell surface of treated monolayers (ACE2 [1]),LD50 [2] [mg/kg],"infectivity of cells ([3]; infectious ratio 1:100 viruses per cell, FIG. 3)","infectivity of cells ([3]; infectious ratio 5:100 viruses per cell, FIG. 4)","infectivity of cells ([3]; infectious ratio 10:100 viruses per cell, FIG. 5)",LD50 as total dose (LD50) [grams],serum pro-inflammatory cytokine levels [4],externalization of ACE2 (ACE2 [5]),"ACE2-mediated binding and signal of VSV virus-expressing COVID-spike protein in target cells (ACE2 [5]; target cells, FIG. 1)","infectivity of cells expressing WT spike (amount of green signal produced by viral infection) ([3]; ACE2 expressing cell monolayers, infectious ratio 5:100 viruses per cell, 1 mM to 0.01 mM, FIG. 6)"
"N=C(N)c1ccc(/N=N/Nc2ccc(C(=N)N)cc2)cc1 [Diminazene, 4,4′-(1-Triazene-1,3-diyl) bis(benzenecarboximidamide)]",increased average signal in treated monolayers consistent with externalization of ACE2 on the cell surface,~350,dose-dependent reduction in the infectivity of cells,dose-dependent reduction in the infectivity of cells,dose-dependent reduction in the infectivity of cells,~24,reduces serum pro-inflammatory cytokine levels,,,
CC(=O)NCC(=O)O.CC(=O)NCC(=O)O.N=C(N)c1ccc(N=NNc2ccc(C(=N)N)cc2)cc1 [diminazene aceturate],,,,,,,,concentration-dependently causes externalization of ACE2,increases ACE2-mediated binding and signal,dose-dependent reduction in the infectivity of cells expressing WT spike

# — patent publication US20220409637A1, “COVID-19 THERAPEUTICS AND METHODS OF TREATMENT” (priority 2020, published 2022)
